This is an account of results in patent US7704971B2, “Uracil reductase inactivators” (SmithKlineBeecham Corporation, priority 1990, dated 2010).

Series [1] deals with T1, uracil reductase (Rattus norvegicus, UniProt O89000).
T1 construct: from tissue; host or cells: whole animal (rat), endogenous enzyme
T1 sequence (O89000 1-1025): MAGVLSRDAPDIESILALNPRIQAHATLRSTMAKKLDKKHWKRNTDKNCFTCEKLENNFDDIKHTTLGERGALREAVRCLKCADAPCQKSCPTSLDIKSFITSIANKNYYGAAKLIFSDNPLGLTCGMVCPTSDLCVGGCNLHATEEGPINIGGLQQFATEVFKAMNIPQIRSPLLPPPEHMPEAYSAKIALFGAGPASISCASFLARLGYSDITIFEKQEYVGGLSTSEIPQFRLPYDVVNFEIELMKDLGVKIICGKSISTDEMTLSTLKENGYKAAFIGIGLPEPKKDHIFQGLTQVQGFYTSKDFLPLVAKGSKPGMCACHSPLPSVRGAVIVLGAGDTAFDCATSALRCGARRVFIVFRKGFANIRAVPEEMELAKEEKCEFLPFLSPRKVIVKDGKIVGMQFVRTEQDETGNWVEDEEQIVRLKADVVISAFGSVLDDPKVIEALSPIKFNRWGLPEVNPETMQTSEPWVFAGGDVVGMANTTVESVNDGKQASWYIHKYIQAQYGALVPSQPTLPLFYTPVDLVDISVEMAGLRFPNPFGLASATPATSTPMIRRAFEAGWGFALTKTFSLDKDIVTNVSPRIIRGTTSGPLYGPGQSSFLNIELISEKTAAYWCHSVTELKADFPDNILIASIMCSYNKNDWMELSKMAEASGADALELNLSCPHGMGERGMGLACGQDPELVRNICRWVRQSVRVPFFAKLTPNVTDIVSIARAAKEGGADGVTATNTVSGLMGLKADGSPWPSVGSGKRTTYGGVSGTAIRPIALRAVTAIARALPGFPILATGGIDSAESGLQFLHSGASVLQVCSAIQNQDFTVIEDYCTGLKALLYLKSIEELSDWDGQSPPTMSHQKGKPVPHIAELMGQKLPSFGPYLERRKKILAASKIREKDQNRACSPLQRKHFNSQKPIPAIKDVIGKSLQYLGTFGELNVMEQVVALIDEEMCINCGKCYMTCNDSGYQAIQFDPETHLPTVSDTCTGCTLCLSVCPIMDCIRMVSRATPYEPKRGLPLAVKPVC
Kind of series: Inactivation of uracil reductase in vivo (plasma uracil and thymine), rats. As to the method:
(§1) The maximum effect occurred at about 0.1 mg/kg p.o. in rats, at 0.5 to 1 mg/kg s.c. in mice, and at approximately 1 mg/kg intravenously (i.v.) in dogs and probably represents total inactivation of uracil reductase. These doses elevated mouse, dog, and rat plasma uracil from about 3 uM to about 50-60 uM. […] The ED50 equals 0.01 mg/kg.

Series [2] has as its target T2, uracil reductase (Mus musculus, UniProt Q8CHR6).
T2 construct: from tissue; host or cells: whole animal (mouse), endogenous enzyme
T2 sequence (Q8CHR6 1-1025): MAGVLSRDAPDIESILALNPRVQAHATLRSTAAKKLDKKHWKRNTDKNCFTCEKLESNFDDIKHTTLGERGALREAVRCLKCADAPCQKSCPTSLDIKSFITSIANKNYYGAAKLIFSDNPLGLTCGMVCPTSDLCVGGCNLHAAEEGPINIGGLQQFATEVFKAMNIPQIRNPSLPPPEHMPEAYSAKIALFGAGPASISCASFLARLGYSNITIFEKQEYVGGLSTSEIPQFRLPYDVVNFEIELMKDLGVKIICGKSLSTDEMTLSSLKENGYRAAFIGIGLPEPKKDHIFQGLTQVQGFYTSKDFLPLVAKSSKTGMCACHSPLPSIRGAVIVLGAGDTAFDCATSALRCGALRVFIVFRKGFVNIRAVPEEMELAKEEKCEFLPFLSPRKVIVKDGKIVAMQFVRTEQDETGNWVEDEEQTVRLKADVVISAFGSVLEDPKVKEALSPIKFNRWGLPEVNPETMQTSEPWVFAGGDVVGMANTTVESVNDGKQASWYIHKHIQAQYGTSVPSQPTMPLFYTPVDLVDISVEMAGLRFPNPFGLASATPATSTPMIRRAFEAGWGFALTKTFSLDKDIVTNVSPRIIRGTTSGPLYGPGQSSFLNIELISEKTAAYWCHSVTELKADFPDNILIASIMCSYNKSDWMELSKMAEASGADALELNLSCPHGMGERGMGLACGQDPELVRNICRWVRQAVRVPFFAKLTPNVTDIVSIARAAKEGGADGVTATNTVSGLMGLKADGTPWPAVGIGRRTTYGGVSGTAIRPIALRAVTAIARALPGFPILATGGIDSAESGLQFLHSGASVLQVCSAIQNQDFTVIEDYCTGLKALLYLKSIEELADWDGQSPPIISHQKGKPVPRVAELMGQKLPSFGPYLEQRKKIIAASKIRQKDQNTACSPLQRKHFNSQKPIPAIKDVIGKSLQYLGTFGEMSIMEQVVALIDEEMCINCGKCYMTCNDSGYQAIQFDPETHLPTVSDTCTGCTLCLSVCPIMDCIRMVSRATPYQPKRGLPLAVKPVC
The series is described as follows: Inactivation of uracil reductase in vivo (plasma uracil and thymine), mice. As to the method:
as §1

In series [3] the test system is uracil reductase. The series is described as follows: Inactivation of uracil reductase in vivo (plasma uracil and thymine), dogs. As to the method:
as §1

The test system of series [4] is uracil reductase. Kind of series: Inactivation of uracil reductase in vivo (plasma uracil and thymine), monkeys. The note with it: monkeys dosed with small amounts. As to the method:
as §1

The test system of series [5] is uracil reductase. Kind of series: Return of plasma uracil to normal after EU (species not specified). The note with it: after EU dose of maximum effect. In kind it is in vivo. As to the method:
as §1

Series [6] in a line: Effect on plasma FU level, mice. In kind it is in vivo. As to conditions: 5-FU p.o. or i.p., EU 2 mg/kg i.p. 90 minutes prior to 5-FU. As to the method:
Mice were dosed either orally (p.o.) or interperitoneally (i.p.) with 5-fU. 5-ethynyluracil (EU) at 2mg/kg was dosed i.p. 90 minutes prior to the 5-FU.
In addition, the usual variability in plasma FU in rats orally dosed with FU at 50 mg/kg was eliminated by EU pretreatment.

Molecules are shown by their SMILES.

For the compound `C#Cc1c[nH]c(=O)[nH]c1=O` [5-ethynyluracil], the plasma uracil fell in the range of 50 to 60 µM on uracil reductase [1] (rat, at dose of maximum effect, elevated from about 3 uM); 50 to 60 µM on uracil reductase [2] (mouse, at dose of maximum effect, elevated from about 3 uM); 50 to 60 µM with uracil reductase [3] (dog, at dose of maximum effect, elevated from about 3 uM). Moreover, on uracil reductase [1] (rat, oral doses, 4 hours after dosing, read-out: ED50 (increased plasma levels of uracil and thymine)), the ED50 came out at 0.01 mg/kg. Moreover, the “dose at which the maximum effect on plasma uracil and thymine occurred” value on uracil reductase [1] (rats, p.o.) is on record as “about 0.1 mg/kg”; on uracil reductase [2] (mice, s.c.) it was 0.5 to 1 mg/kg; in the series with uracil reductase [3] (dogs, intravenously (i.v.)) it was “approximately 1 mg/kg”. Also, the “plasma uracil and thymine levels” value with uracil reductase [4] is “greatly elevated”. For the same compound, in the series with uracil reductase [5], the “half-life of plasma uracil decrease to normal” value came to 10 h. Moreover, the “time over which plasma uracil decreased to normal” value with uracil reductase [5] came to 24 h. Besides, the “plasma levels of 5-fluorouracil” value in series [6] is “increased”.
